Like-named read-outs stand apart in the source and are kept apart here.
Tests used:
[1] = Uptake of radiolabeled insulin-quantum dot conjugate after oral administration; settings: 30 minutes after oral administration, healthy rodents
Procedure: (§1) Conjugates of radiolabeled insulin and quantum dots were produced in a method as described above, albeit with radiolabeled insulin used instead of native insulin. Two groups of healthy rodents were then orally administered either a dose of conjugates or equivalent radiolabeled unbound insulin. The distribution of radioactivity was then monitored 30 minutes after administration.

[2] = Biodistribution of ^14C radiolabelled insulin (FIG. 6); settings: for main location of radiolabelled insulin: after 30 minutes, mice fasted 4 hours
Procedure: Tissue samples and blood plasma were prepared for radiolabel component analysis according to standard methods. Data is presented in this figure is as a percentage of radiolabel insulin relative to the administrated dosage, data is shown as mean±SD.
Three mice treatment groups were fasted for 4 hours before given either an oral gavage of insulin (Oral INS), a subcutaneous injection of insulin (SC-INS) or an oral gavage of QD-insulin conjugate (QD-INS) at 2 IU/kg doses.

[3] = tested on: blood glucose; assay: Glucose tolerance test with an oral dose of conjugate (FIG. 4); assay type: in vivo, rodents; settings: for effect on blood glucose after glucose gavage: 30 minutes before glucose gavage, monitored 90 minutes (FIG. 4 legend)
Procedure: Each subject was then monitored for blood glucose over the 90 minutes after receiving the glucose gavage.
A population of 30 healthy rodents without diabetic symptoms were obtained, and were divided into six treatment groups: one group of 5 rodents received 2 IU/kg of insulin by intraperitoneal injection 30 minutes prior to a glucose gavage; one group received 100 IU/kg of insulin by via oral gavage 30 minutes prior to a glucose gavage; […] gavage; one group of 5 […] gavage and one group of five rodents were given only a glucose gavage. Blood glucose of all rodents were then monitored over 90 minutes post-glucose gavage.

[4] = tested on: blood glucose; assay: Oral glucose tolerance test (oGTT), SC-INS versus QD-INS (FIG. 5); assay type: in vivo, C57BL/6 mice; settings: oral gavage 20 IU/kg, 30 minutes before oGTT
Procedure: A further study was carried out on healthy rodents without diabetic symptoms comparing a saline subcutaneous injection (control), a subcutaneous injection of insulin (SC-INS, 2 IU/kg), or an oral gavage of oral-insulin (QD-INS, 20 IU/kg) 30 minutes before a glucose tolerance test (oGTT).

[5] = in vivo, po
Procedure: as §1

[6] = tested on: blood glucose; assay: Insulin tolerance test in diabetic NOD/Scid mouse model (FIG. 8); assay type: in vivo, NOD/Scid mice; settings: oral gavage versus subcutaneous injection
Procedure: NOD mice with a blood glucose below […] were treated with SC-INS (1 IU/kg) or QD-INS (25 IU/kg) at time 0, mice with a blood glucose above […] were treated with 4 IU/kg SC-INS or 100 IU/kg QD-INS. Blood glucose samples were collected at −15, 0, 15, 30, 45 and 60 mins. […] Data points showing the mean±SD.
Blood glucose was measured used a handheld Glucometer using Accu-check proforma strips. Blood was collected by tail vein sampling following a tail snip. Blood glucose was collected at −15, 0, 15, 30, 45 and 60 mins after a subcutaneous (SC) insulin injection (0.1, 1 or 2 IU/kg) or a gavage of QD-insulin conjugates (10, 20, 30, 40, 50, 75 or 100 IU/kg).

Row | Substance | radioactive label found in the liver [1] | main location of radiolabelled insulin ([2]; oral gavage 2 IU/kg) | main location of radiolabelled insulin ([2]; subcutaneous injection 2 IU/kg) | location of radiolabelled insulin ([2]; after 2 hours, oral gavage 2 IU/kg) | radiolabelled insulin located in the liver ([2]; after 2 hours, subcutaneous injection 2 IU/kg) | blood glucose lowering, no spike after glucose gavage ([3]; 2 IU/kg by intraperitoneal injection 30 minutes prior to glucose gavage (Example 3)) | effect on blood glucose after glucose gavage ([3]; intraperitoneal injection equivalent to 0.1 IU/kg insulin) | lowering of blood glucose levels in oGTT compared with injected insulin (SC-INS, 2 IU/kg) [4] | effect on blood glucose after glucose gavage ([3]; oral gavage equivalent to 20 IU/kg insulin) | blood glucose lowering effects compared with the injected insulin ([3]; orally administered) | blood glucose lowering, no spike after glucose gavage ([3]; quantum dot insulin group, oral, 30 minutes prior to glucose gavage (Example 3)) | radioactive label found in the liver [5] | QD-insulin dose relative to the SC-insulin dose that resulted in similar glucose reductions [6]
1 | insulin | approximately 1% | mainly located in the small bowel | found in the liver and blood | still located in the bowel | about 50% | effective in lowering blood glucose | reduced the blood glucose of the rodent subjects by an approximately equivalent amount |  |  |  |  |  | 
2 | QD-insulin: Ag2S quantum dot conjugated to insulin by EDC/NHS, then assembled with chitosan with galactose or glucose biopolymer |  |  |  |  |  |  |  | as effective | reduced the blood glucose of the rodent subjects by an approximately equivalent amount | equal, if not better | effective in lowering blood glucose | Approximately 50% | about 25 times
